According to ChEMBL document CHEMBL3885881, “DrugMatrix”:

Organism: Rattus norvegicus
Assay: DrugMatrix - Regimen: Daily Repeat
Format: toxicity, organism-based, Sprague-Dawley
Set-up: regimen Daily Repeat, gender Male, age 6-8 weeks
Settings: in vivo, po, route oral GAVAGE, vehicle .5 % CMC; for ABSOLUTE BASOPHIL / ABSOLUTE EOSINOPHIL / ABSOLUTE LYMPHOCYTE / ABSOLUTE MONOCYTE / ABSOLUTE SEGMENTED NEUTROPHIL / BASOPHIL / EOSINOPHIL / ERYTHROCYTE COUNT / HEMATOCRIT / HEMOGLOBIN / LEUKOCYTE COUNT / LYMPHOCYTE / MEAN CORPUSCULAR HEMOGLOBIN / MEAN CORPUSCULAR HEMOGLOBIN CONCENTRATION / MEAN CORPUSCULAR VOLUME / MONOCYTE / NEUTROPHIL / NUCLEATED RED BLOOD CELLS / PLATELET COUNT: tissue Blood; for ALANINE AMINOTRANSFERASE / ALBUMIN / ALKALINE PHOSPHATASE / ASPARTATE AMINOTRANSFERASE / BLOOD UREA NITROGEN / CARBON DIOXIDE / CHLORIDE / CHOLESTEROL / CREATINE PHOSPHOKINASE / CREATININE / GLUCOSE / LACTATE DEHYDROGENASE / LIPASE / PHOSPHORUS / POTASSIUM / SODIUM / TOTAL BILIRUBIN / TOTAL PROTEIN / URIC ACID: tissue Plasma
[1] = 0.0001 mg/kg, 72 h, dose level Low, time 3 day
[2] = 0.0001 mg/kg, 120 h, dose level Low, time 5 day
[3] = […], 72 h, dose 0.043 mg/Kg, dose level High, time 3 day
[4] = […], 120 h, dose 0.043 mg/Kg, dose level High, time 5 day

C=C1/C(=C\C=C2/CCC[C@]3(C)[C@@H]([C@H](C)CCCC(C)C)CC[C@@H]23)C[C@@H](O)C[C@@H]1O [ALFACALCIDOL]
ABSOLUTE BASOPHIL [1]: 0 CELLS/uL
ABSOLUTE EOSINOPHIL [1]: 140 CELLS/uL
ABSOLUTE LYMPHOCYTE [1]: 12178.67 CELLS/uL
ABSOLUTE MONOCYTE [1]: 352 CELLS/uL
ABSOLUTE SEGMENTED NEUTROPHIL [1]: 1262.67 CELLS/uL
BASOPHIL [1]: 0%
EOSINOPHIL [1]: 1%
ERYTHROCYTE COUNT [1]: 6.05 x10E6/uL
HEMATOCRIT [1]: 38.07%
HEMOGLOBIN [1]: 14.23 G/DL
LEUKOCYTE COUNT [1]: 13.93 x10E3/uL
LYMPHOCYTE [1]: 87.33%
MEAN CORPUSCULAR HEMOGLOBIN [1]: 23.6 pg
MEAN CORPUSCULAR HEMOGLOBIN CONCENTRATION [1]: 37.4 G/DL
MEAN CORPUSCULAR VOLUME [1]: 63.03 fL
MONOCYTE [1]: 2.67%
NEUTROPHIL [1]: 9%
NUCLEATED RED BLOOD CELLS [1]: 0.33 /100WBC
PLATELET COUNT [1]: 1202.33 x10E3/uL
ALANINE AMINOTRANSFERASE [1]: 48.33 u/L
ALBUMIN [1]: 4.17 G/DL
ALKALINE PHOSPHATASE [1]: 299.33 u/L
ASPARTATE AMINOTRANSFERASE [1]: 81 u/L
BLOOD UREA NITROGEN [1]: 17 mg/dL
CARBON DIOXIDE [1]: 24.67 mmol/L
CHLORIDE [1]: 103.5 MEQ/L
CHOLESTEROL [1]: 65 mg/dL
CREATINE PHOSPHOKINASE [1]: 332 u/L
CREATININE [1]: 0.2 mg/dL
GLUCOSE [1]: 178.67 mg/dL
LACTATE DEHYDROGENASE [1]: 142.33 u/L
LIPASE [1]: 9.33 u/L
PHOSPHORUS [1]: 12.17 mg/dL
POTASSIUM [1]: 6.03 MEQ/L
SODIUM [1]: 146.55 MEQ/L
TOTAL BILIRUBIN [1]: 0.23 mg/dL
TOTAL PROTEIN [1]: 5.83 G/DL
URIC ACID [1]: 1.77 mg/dL
ABSOLUTE BASOPHIL [2]: 0 CELLS/uL
ABSOLUTE EOSINOPHIL [2]: 164 CELLS/uL
ABSOLUTE LYMPHOCYTE [2]: 10288.67 CELLS/uL
ABSOLUTE MONOCYTE [2]: 193 CELLS/uL
ABSOLUTE SEGMENTED NEUTROPHIL [2]: 1121 CELLS/uL
BASOPHIL [2]: 0%
EOSINOPHIL [2]: 1.33%
ERYTHROCYTE COUNT [2]: 5.95 x10E6/uL
HEMATOCRIT [2]: 36.97%
HEMOGLOBIN [2]: 13.63 G/DL
LEUKOCYTE COUNT [2]: 11.77 x10E3/uL
LYMPHOCYTE [2]: 87.33%
MEAN CORPUSCULAR HEMOGLOBIN [2]: 22.9 pg
MEAN CORPUSCULAR HEMOGLOBIN CONCENTRATION [2]: 36.9 G/DL
MEAN CORPUSCULAR VOLUME [2]: 62.07 fL
MONOCYTE [2]: 1.67%
NEUTROPHIL [2]: 9.67%
NUCLEATED RED BLOOD CELLS [2]: 0 /100WBC
PLATELET COUNT [2]: 1179 x10E3/uL
ALANINE AMINOTRANSFERASE [2]: 40.33 u/L
ALBUMIN [2]: 4.23 G/DL
ALKALINE PHOSPHATASE [2]: 369.33 u/L
ASPARTATE AMINOTRANSFERASE [2]: 94.33 u/L
BLOOD UREA NITROGEN [2]: 21 mg/dL
CARBON DIOXIDE [2]: 26.67 mmol/L
CHLORIDE [2]: 105 MEQ/L
CHOLESTEROL [2]: 57.33 mg/dL
CREATINE PHOSPHOKINASE [2]: 399 u/L
CREATININE [2]: 0.21 mg/dL
GLUCOSE [2]: 158.33 mg/dL
LACTATE DEHYDROGENASE [2]: 716.33 u/L
LIPASE [2]: 8.33 u/L
PHOSPHORUS [2]: 11.8 mg/dL
POTASSIUM [2]: 5.72 MEQ/L
SODIUM [2]: 145.1 MEQ/L
TOTAL BILIRUBIN [2]: 0.13 mg/dL
TOTAL PROTEIN [2]: 5.9 G/DL
URIC ACID [2]: 1.3 mg/dL
ABSOLUTE BASOPHIL [3]: 0 CELLS/uL
ABSOLUTE EOSINOPHIL [3]: 333 CELLS/uL
ABSOLUTE LYMPHOCYTE [3]: 10082 CELLS/uL
ABSOLUTE MONOCYTE [3]: 537.33 CELLS/uL
ABSOLUTE SEGMENTED NEUTROPHIL [3]: 2481 CELLS/uL
BASOPHIL [3]: 0%
EOSINOPHIL [3]: 2.33%
ERYTHROCYTE COUNT [3]: 6 x10E6/uL
HEMATOCRIT [3]: 36.53%
HEMOGLOBIN [3]: 13.9 G/DL
LEUKOCYTE COUNT [3]: 13.43 x10E3/uL
LYMPHOCYTE [3]: 74%
MEAN CORPUSCULAR HEMOGLOBIN [3]: 23.2 pg
MEAN CORPUSCULAR HEMOGLOBIN CONCENTRATION [3]: 38.07 G/DL
MEAN CORPUSCULAR VOLUME [3]: 60.97 fL
MONOCYTE [3]: 4%
NEUTROPHIL [3]: 19.67%
NUCLEATED RED BLOOD CELLS [3]: 0.33 /100WBC
PLATELET COUNT [3]: 1182 x10E3/uL
ALANINE AMINOTRANSFERASE [3]: 54.33 u/L
ALBUMIN [3]: 3.93 G/DL
ALKALINE PHOSPHATASE [3]: 234.67 u/L
ASPARTATE AMINOTRANSFERASE [3]: 99 u/L
BLOOD UREA NITROGEN [3]: 27.67 mg/dL
CARBON DIOXIDE [3]: 26.33 mmol/L
CHLORIDE [3]: 99.67 MEQ/L
CHOLESTEROL [3]: 75.33 mg/dL
CREATINE PHOSPHOKINASE [3]: 379.67 u/L
CREATININE [3]: 0.33 mg/dL
GLUCOSE [3]: 174.33 mg/dL
LACTATE DEHYDROGENASE [3]: 344 u/L
LIPASE [3]: 8.33 u/L
PHOSPHORUS [3]: 12.9 mg/dL
POTASSIUM [3]: 5.6 MEQ/L
SODIUM [3]: 142.27 MEQ/L
TOTAL BILIRUBIN [3]: 0.2 mg/dL
TOTAL PROTEIN [3]: 5.87 G/DL
URIC ACID [3]: 1.57 mg/dL
ABSOLUTE BASOPHIL [4]: 0 CELLS/uL
ABSOLUTE EOSINOPHIL [4]: 110 CELLS/uL
ABSOLUTE LYMPHOCYTE [4]: 15770.33 CELLS/uL
ABSOLUTE MONOCYTE [4]: 383.67 CELLS/uL
ABSOLUTE SEGMENTED NEUTROPHIL [4]: 2702.67 CELLS/uL
BASOPHIL [4]: 0%
EOSINOPHIL [4]: 1%
ERYTHROCYTE COUNT [4]: 6.37 x10E6/uL
HEMATOCRIT [4]: 38.77%
HEMOGLOBIN [4]: 14.5 G/DL
LEUKOCYTE COUNT [4]: 18.97 x10E3/uL
LYMPHOCYTE [4]: 83.33%
MEAN CORPUSCULAR HEMOGLOBIN [4]: 22.77 pg
MEAN CORPUSCULAR HEMOGLOBIN CONCENTRATION [4]: 37.43 G/DL
MEAN CORPUSCULAR VOLUME [4]: 60.83 fL
MONOCYTE [4]: 2%
NEUTROPHIL [4]: 13.67%
NUCLEATED RED BLOOD CELLS [4]: 0 /100WBC
PLATELET COUNT [4]: 1065.33 x10E3/uL
ALANINE AMINOTRANSFERASE [4]: 53.67 u/L
ALBUMIN [4]: 4.5 G/DL
ALKALINE PHOSPHATASE [4]: 245.67 u/L
ASPARTATE AMINOTRANSFERASE [4]: 109.33 u/L
BLOOD UREA NITROGEN [4]: 18 mg/dL
CARBON DIOXIDE [4]: 27 mmol/L
CHLORIDE [4]: 101.67 MEQ/L
CHOLESTEROL [4]: 74.33 mg/dL
CREATINE PHOSPHOKINASE [4]: 756 u/L
CREATININE [4]: 0.12 mg/dL
GLUCOSE [4]: 155.33 mg/dL
LACTATE DEHYDROGENASE [4]: 946.67 u/L
LIPASE [4]: 8.33 u/L
PHOSPHORUS [4]: 12.47 mg/dL
POTASSIUM [4]: 4.95 MEQ/L
SODIUM [4]: 144.83 MEQ/L
TOTAL BILIRUBIN [4]: 0.1 mg/dL
TOTAL PROTEIN [4]: 6.33 G/DL
URIC ACID [4]: 1.5 mg/dL
